Columns and labels:
MNRR1 = MNRR1 protein levels in MELAS cybrid cells (immunoblot); format: cell-based, human; settings: 10 μM; for MNRR1 protein levels: DW7 cells, 24 h
Experimental: FIGS. 6A-6C: FIG. 6A: Above, Chemical structures of nitazoxanide, its metabolites, and similar compounds. Abbreviations: P4, Phenyl-4-aminosalicylic acid; 4ABA, 4-Aminobenzanilide; 4ASA, 4-Amino salicylic acid; BA, Benzanilide; PBO, Phenyl benzoate; PSA, Phenyl salicylic acid; 2AN, 2-Amino 5-nitrothiazole. Below, Equal amounts of lysates of MELAS cells treated with Vehicle (DMSO) or the various compounds (10 μM) for 24 h were separated on an SDS-PAGE gel and probed for MNRR1 levels. Actin was probed as a loading control and numbers below represent an average and SD of 3 biological replicates. FIGS. 6B-6C: MNRR1 transcript levels are shown relative to 18S rRNA (n=4 biological replicates, error bars represent SE). In all figures, * indicates p<0.05, ** indicates p<0.005.
FIGS. 11A-11F: RBPJk and HIF2α compete for binding at the ORE in the MNRR1 promoter to regulate transcription. FIG. 11A: Chromatin immunoprecipitation-qPCR assessing binding of HIF2α to the endogenous MNRR1 promoter in MELAS cybrid cells with 0% (CL9) and 70% heteroplasmy (DW7). FIG. 11B: Dual luciferase reporter assay showing relative activation of MNRR1-luciferase levels in MELAS cybrid cells overexpressing varying proportions of constitutively active RBPJk (RBP-CA) and HIF2α. FIG. 11C: Dual luciferase reporter assay showing relative activation of MNRR1-luciferase levels in MELAS cybrid cells overexpressing the WT (FIG. 9A) or ΔORE (positions 47-53 in SEQ ID NO: 25 in FIG. 9C) promoter with EV (dotted line) or HIF2α. FIG. 11D: Equal amounts of Control or HIFα knockdown (KD) MELAS cybrid cell lysates were separated on an SDS-PAGE gel and probed for HIF2α and MNRR1 levels. Tubulin was probed as loading control. FIG. 11E: Oxygen consumption measured from Control or HIFα knockdown (KD) MELAS cybrid cells. (n=4 biological replicates, error bars represent SE). FIG. 11F: Left, Oxygen consumption measured from MELAS cybrid cells treated with vehicle (DMSO) or PT2385 (10 μM), an inhibitor of HIF2α function, for 24 h. Right, Equal amounts of MELAS cybrid cell lysates treated with vehicle (DMSO) or PT2385 (10 μM) for 24 h, separated on an SDS-PAGE gel, and probed for MNRR1 levels. GAPDH was probed as a loading control.
(§1) Immunoblotting: Immunoblotting was performed as described previously. Cell lysates for immunoblotting were prepared using RIPA buffer (Abcam, Waltham, MA) and included a protease and phosphatase inhibitor cocktail (Sigma, St. Louis, MO). […] The clear supernatants were transferred to new tubes and quantified using the Bradford reagent with BSA as standard (BioRad, Hercules. CA). […] For detection after immunoblotting, the SuperSignal™ West Pico PLUS substrate (ThermoFisher, Waltham, MA) was used to generate chemiluminescence signal, which was detected with X-Ray film (RadTech, Vassar, MI).

HIF2α = HIF2α protein levels in MELAS cybrid cells (immunoblot); format: cell-based, human
Experimental: FIGS. 10A-10E: The reduction of MNRR1 in MELAS cells is via HIF2α acting at the ORE and not the HRE. FIG. 10A: Above, Equal amounts of MELAS cell lysates, treated with vehicle (DMSO) or increasing amounts of tizoxanide (2.5 to 40 μM) for 24 h, were separated on an SDS-PAGE gel and probed for HIF2α, MNRR1, and Tubulin. Below, Protein quantification for MNRR1 and HIF2α relative to Tubulin. FIG. 10B: Dual luciferase reporter assay showing relative activation of MNRR1-luciferase in MELAS cybrid cells overexpressing WT (FIG. 9A), Δ 801-952 (FIG. 9A), ΔORE (positions 47-53 of SEQ ID NO: 25 in FIG. 9C) or ΔHRE (positions 59-66 of SEQ ID NO: 25 in FIG. 9C). FIG. 10C: Dual luciferase reporter assay showing relative activation of HRE-luciferase levels in cybrid cells with 0% (CL9) and 70% MELAS heteroplasmy (DW7). […]
as §1, with “previously.” for “previously. Cell lysates for immunoblotting were prepared using RIPA buffer (Abcam, Waltham, MA) and included a protease and phosphatase inhibitor cocktail (Sigma, St. Louis, MO).”

SMILES | MNRR1 protein levels (MNRR1) | levels of HIF2α (HIF2α; MELAS cells) | MNRR1 levels (MNRR1; MELAS cybrid cells, 48 h) | HIF2α protein levels relative to MNRR1 (HIF2α; MELAS cybrid cells, 2.5 to 40 μM, 24 h)
CC(=O)Oc1ccccc1C(=O)Nc1ncc([N+](=O)[O-])s1 [nitazoxanide, Nitazoxanide] | significant increase | reduces |  | 
O=C(Nc1ncc([N+](=O)[O-])s1)c1ccccc1O [tizoxanide, Tizoxanide] | significant increase |  | increases MNRR1 levels | inversely proportional in a concentration dependent manner to MNRR1

From US20250241901A1, “ACTIVATION OF MNRR1 / CHCHD2 AS A THERAPEUTIC TARGET FOR MITOCHONDRIA ASSOCIATED DISORDERS” (Wayne State University, priority 2024, published 2025)
